Data reported in patent US20140243326A1, “Synergistic Insecticidal Mixtures” (priority 2003, published 2014).
“And” between values parts separate entries of the source, which are not always exact repeats. Identical values can stand only once.

Assays:
[1] = tested on: Phaedon cochleariae larvae; test: Phaedon cochleariae larvae test (cabbage leaf dip); assay type: in vivo, mustard beetle (Phaedon cochleariae); conditions: 4 ppm, single active ingredient
Excerpt: (§1) The expected effect for a given combination of two active ingredients can be calculated (cf. Colby, S. R., “Calculating Synergistic and Antagonistic Responses of Herbicide Combinations”, Weeds, 15, pp. 20-22, 1967).
(§2) If • X=the kill rate, expressed in % of the untreated control, while using active ingredient A in an application amount of m ppm, • Y=the kill rate, expressed in % of the untreated control, while using active ingredient B in an application amount of n ppm, • E=the kill rate, expressed in % of die untreated control, while using active ingredient A and B in application amounts of m and n ppm, then
(§3) If the actual kill rate is higher than calculated rate, the combination's kill rate is superadditive, i.e., it has a synergistic effect. In this case, the actually observed kill rate must be higher than the value calculated using the above formula for the expected kill rate (E).
(§4) Solvent: 7 parts per weight dimethyl formamide Emulsifiers: 2 parts by weight alkylaryl polyglycol ether
To manufacture one of the appropriate active ingredient preparations, mix 1 part by weight of the active ingredient with the indicated amount of solvent and emulsifier and dilute the concentrate with emulsifier-containing water to the desired concentration.
Cabbage leaves (Brassica oleracea) are treated by being dipped into the active ingredient preparation at the desired concentration and infested with larvae of the mustard beetle (Phaedon cochleariae) while the leaves are still damp.
After the desired time, determine the % that have been killed off. For this purpose 100% means that all the beetle larvae on the leaves were killed; 0% means that no beetle larvae were killed. Calculate the determined kill values using Colby's formula.

[2] = tested on: Plutella xylostella, resistant strain; test: Plutella xylostella test, resistant strain (cabbage leaf dip); assay type: in vivo, diamondback moth (Plutella xylostella; conditions: 100 ppm, single active ingredient
Excerpt: as §1, §2, §3
Solvent: 7 parts per weight dimethyl formamide Emulsifier: 2 parts by weight alkylaryl polyglycol ether
(§5) To prepare one of the appropriate active ingredient preparations, mix 1 part by weight of the active ingredient with the indicated amount of solvent and emulsifier and dilute the concentrate with emulsifier-containing water to the desired concentration.
Cabbage leaves (Brassica oleracea) are treated by being dipped into the active ingredient preparation at the desired concentration and infested with diamondback moth grubs (Plutella xylostella, resistant strain) while the leaves are still damp.
After the desired time, determine the % that have been killed off. For these purposes 100% means that all the grubs on the leaves were killed; 0% means that no grubs were killed. Calculate the determined kill rate values using Colby's formula.

Myzus persicae = Myzus persicae test (cabbage leaf dip); assay type: in vivo, green peach aphid (Myzus persicae); conditions: single active ingredient
Excerpt: as §1, §2, §3, §4, §5
Cabbage leaves (Brassica oleracea) that have been highly infested with the green peach aphid (Myzus persicae) are treated by being dipped into the active ingredient preparation at the desired concentration.
After the desired time, determine the % that have been killed off. For these purposes, 100% means that all the aphids on the leaves were killed; 0% means that no aphids were killed. Calculate the determined kill values using Colby's formula.

In the case of `CN/C(=N\[N+](=O)[O-])NCc1cnc(Cl)s1` [clothianidin], the “Kill rate in % after 6d” value [1] is reported as 75%.

With `O=[N+]([O-])NC1=NCCN1Cc1ccc(Cl)nc1` [imidacloprid] the “Kill rate in % after 6d” value [1] was 45%.

With `N#C/N=C1\SCCN1Cc1ccc(Cl)nc1` [thiacloprid] the “Kill rate in % after 6d” value [2] was 45%, the “Kill rate in % after 6d” value [1] was 0% and the “Dead in % after 6d” value (Myzus persicae; 0.8 ppm) was 30%.

For `CN1COCN(Cc2cnc(Cl)s2)/C1=N/[N+](=O)[O-]` [thiamethoxam], the “Kill rate in % after 6d” value [2] was 75%, the “Kill rate in % after 6d” value [1] was 25% and the “Kill rate in % after 6d” value (Myzus persicae; 0.8 ppm) was 85%.

For `CS/C(C)=N\OC(=O)N(C)SN(C)C(=O)O/N=C(\C)SC` [thiodicarb], the “Kill rate in % after 6d” value [2] was 15% and 5%, the “Dead in % after 6d” value (Myzus persicae; 20 ppm) was 0% and the “Kill rate in % after 6d” value (Myzus persicae; 20 ppm) was 0%.
